From US10477864B2, “Microbiocidal quinoline (thio)carboxamide derivatives” (priority 2016, dated 2019) come the findings set out here.

The term melting point denotes the temperature, or range, at which the solid turns liquid.

The subject of series [1] is Botryotinia fuckeliana (Botrytis cinerea). Nature of the series: Botryotinia fuckeliana (Botrytis cinerea) / liquid culture (gray mould). In kind it is cell-based. The settings on record: 72 h, read-out: control of Botryotinia fuckeliana.
Series [2] deals with Fusarium culmorum. The series can be described thus: microbe, parasite or virus in culture. The settings on record: read-out: control of Fusarium culmorum. In kind it is cell-based.
The test system of series [3] is Fusarium culmorum. Nature of the series: whole plant or invertebrate. The series is classed as in vivo. Conditions: in Triticum aestivum, read-out: control of Fusarium culmorum.
Series [4] relates to Glomerella lagenarium (Colletotrichum lagenarium). The series can be described thus: Glomerella lagenarium (Colletotrichum lagenarium) / liquid culture (anthracnose). Conditions: Colletotrichum orbiculare; read-out: control of Glomerella lagenarium. The series is classed as cell-based.

The structures appear in SMILES notation. A value given as a limit tells only on which side of the number the result lay.

The compound `CC(C)CC(C)(Cc1ccccc1)NC(=O)c1cnc2cc(C#N)ccc2c1` (centres unmarked) [Compound E-67, N-(1-benzyl-1,3-dimethyl-butyl)-7-cyano-quinoline-3-carboxamide] had a melting point of 170 to 172 °C. Besides, in series [1], the inhibition of growth at 200 ppm is not below 80%. In the series on Fusarium culmorum [2], the inhibition of growth at 200 ppm is not below 80%. For the same compound, the pest or weed control at 200 ppm in the series with Fusarium culmorum [3] is not below 80%.
Regarding `CC(Cc1ccccc1)(CC(F)(F)F)NC(=O)c1cnc2cc(C#N)ccc2c1` (centres unmarked) [Compound E-70, N-(1-benzyl-3,3,3-trifluoro-1-methyl-propyl)-7-cyano-quinoline-3-carboxamide], the melting point lay in the range of 172 to 174 °C. The inhibition of growth at 200 ppm in series [1] was not below 80%. Besides, the inhibition of growth at 200 ppm in the series on Fusarium culmorum [2] was not below 80%. Further, the pest or weed control at 200 ppm in the series on Fusarium culmorum [3] was not below 80%.
The compound `Cc1cccc2ncc(C(=O)NC(C)(Cc3ccccc3)CC(C)C)cc12` (centres unmarked) [Compound E-85, N-(1-benzyl-1,3-dimethyl-butyl)-5-methyl-quinoline-3-carboxamide] yielded a melting point of 79 to 81 °C. In series [1], the inhibition of growth at 200 ppm is not below 80%. Moreover, the inhibition of growth at 200 ppm in the series with Fusarium culmorum [2] is not below 80%. Besides, the pest or weed control at 200 ppm with Fusarium culmorum [3] was not below 80%.
In the case of `Cc1cccc2ncc(C(=O)NC(C)(Cc3ccccc3)CC(F)(F)F)cc12` (centres unmarked) [Compound E-86, N-(1-benzyl-3,3,3-trifluoro-1-methyl-propyl)-5-methyl-quinoline-3-carboxamide], the melting point is 101 to 103 °C. In addition, the inhibition of growth at 200 ppm in series [1] was not below 80%. Moreover, in the series with Fusarium culmorum [2], the inhibition of growth at 200 ppm was not below 80%. Further, the pest or weed control at 200 ppm in the series on Fusarium culmorum [3] is not below 80%. Further, the inhibition of growth at 200 ppm in series [4] was not below 80%.
For `Cc1c(C(=O)NC(C)(Cc2ccccc2)CC(F)(F)F)cnc2c(F)cccc12` (centres unmarked) [Compound E-90, N-(1-benzyl-3,3,3-trifluoro-1-methyl-propyl)-8-fluoro-4-methyl-quinoline-3-carboxamide], the melting point fell in the range of 154 to 158 °C. In addition, the inhibition of growth at 200 ppm in series [1] was not below 80%. Also, the inhibition of growth at 200 ppm with Fusarium culmorum [2] is not below 80%. Also, in the series on Fusarium culmorum [3], the pest or weed control at 200 ppm was not below 80%. Moreover, the inhibition of growth at 200 ppm in series [4] was not below 80%.
For the compound `CC(Cc1ccccc1)(CC(F)(F)F)NC(=O)c1cnc2c(Cl)c(F)ccc2c1` (centres unmarked) [Compound E-93, N-(1-benzyl-3,3,3-trifluoro-1-methyl-propyl)-8-chloro-7-fluoro-quinoline-3-carboxamide], the melting point fell in the range of 150 to 152 °C. The inhibition of growth at 200 ppm in series [1] is not below 80%. For the same compound, the inhibition of growth at 200 ppm in the series with Fusarium culmorum [2] was not below 80%. The pest or weed control at 200 ppm in the series on Fusarium culmorum [3] was not below 80%. Besides, in series [4], the inhibition of growth at 200 ppm is not below 80%.
In turn, `CC(C=C(F)F)(Cc1ccccc1)NC(=O)c1cnc2c(F)cccc2c1` (centres unmarked) [Compound E-94, N-(1-benzyl-3,3-difluoro-1-methyl-allyl)-8-fluoro-quinoline-3-carboxamide] had a melting point of 99 to 101 °C. Also, the inhibition of growth at 200 ppm in series [1] was not below 80%. Moreover, the inhibition of growth at 200 ppm in the series on Fusarium culmorum [2] is not below 80%. The pest or weed control at 200 ppm with Fusarium culmorum [3] is not below 80%. The inhibition of growth at 200 ppm in series [4] is not below 80%.
`CC(Cc1ccccc1F)(CC(F)(F)F)NC(=O)c1cnc2c(F)cccc2c1` (centres unmarked) [Compound E-98, 8-fluoro-N-[3,3,3-trifluoro-1-[(2-fluorophenyl)methyl]-1-methyl-propyl]quinoline-3-carboxamide] came in with a melting point of 131 to 133 °C. For the same compound, the inhibition of growth at 200 ppm in series [1] was not below 80%. Also, in the series on Fusarium culmorum [2], the inhibition of growth at 200 ppm was not below 80%. Further, in the series with Fusarium culmorum [3], the pest or weed control at 200 ppm is not below 80%. Also, the inhibition of growth at 200 ppm in series [4] is not below 80%.
The compound `Cc1c(F)ccc2cc(C(=O)NC(C)(Cc3ccccc3)CC(F)(F)F)cnc12` (centres unmarked) [Compound E-100, N-(1-benzyl-3,3,3-trifluoro-1-methyl-propyl)-7-fluoro-8-methyl-quinoline-3-carboxamide] had a melting point of 127 to 129 °C. In addition, in series [1], the inhibition of growth at 200 ppm is not below 80%. Moreover, in the series on Fusarium culmorum [2], the inhibition of growth at 200 ppm was not below 80%. Moreover, in the series on Fusarium culmorum [3], the pest or weed control at 200 ppm was not below 80%. Also, the inhibition of growth at 200 ppm in series [4] is not below 80%.
Take `CCC(Cc1ccccc1)(CC(F)(F)F)NC(=O)c1cnc2c(F)cccc2c1` (centres unmarked) [Compound E-101, N-(1-benzyl-1-ethyl-3,3,3-trifluoro-propyl)-8-fluoro-quinoline-3-carboxamide]: the melting point is 127 to 129 °C. Also, the inhibition of growth at 200 ppm in series [1] is not below 80%. For the same compound, the inhibition of growth at 200 ppm with Fusarium culmorum [2] is not below 80%. The pest or weed control at 200 ppm in the series on Fusarium culmorum [3] is not below 80%. Further, the inhibition of growth at 200 ppm in series [4] was not below 80%.
Consider `CC(Cc1ccccc1)(CC(F)(F)F)NC(=O)c1cnc2c(F)c(F)ccc2c1` (centres unmarked) [Compound E-102, N-(1-benzyl-3,3,3-trifluoro-1-methyl-propyl)-7,8-difluoro-quinoline-3-carboxamide], for which the melting point was 158 to 160 °C. Also, the inhibition of growth at 200 ppm in series [1] was not below 80%. In addition, the inhibition of growth at 200 ppm with Fusarium culmorum [2] is not below 80%. Also, the pest or weed control at 200 ppm in the series with Fusarium culmorum [3] is not below 80%. In addition, the inhibition of growth at 200 ppm in series [4] is not below 80%.
`Cc1c(C(=O)NC(C)(Cc2ccccc2)CC(F)(F)F)cnc2c(Cl)cccc12` (centres unmarked) [Compound E-104, N-(1-benzyl-3,3,3-trifluoro-1-methyl-propyl)-8-chloro-4-methyl-quinoline-3-carboxamide] had a melting point of 184 to 186 °C. In addition, the inhibition of growth at 200 ppm in series [1] was not below 80%. Also, in the series on Fusarium culmorum [2], the inhibition of growth at 200 ppm was not below 80%. The pest or weed control at 200 ppm in the series with Fusarium culmorum [3] was not below 80%. The inhibition of growth at 200 ppm in series [4] was not below 80%.
As to `Cc1c(C(=O)NC(C)(Cc2ccccc2)CC(F)(F)F)cnc2c(C#N)cccc12` (centres unmarked) [Compound E-105, N-(1-benzyl-3,3,3-trifluoro-1-methyl-propyl)-8-cyano-4-methyl-quinoline-3-carboxamide], the melting point is 194 to 197 °C. For the same compound, the inhibition of growth at 200 ppm in the series on Fusarium culmorum [2] was not below 80%. Moreover, in the series on Fusarium culmorum [3], the pest or weed control at 200 ppm was not below 80%.
For `CC(C)CC(C)(Cc1ccccc1)NC(=O)c1cc2cccc(F)c2nc1Cl` (centres unmarked) [Compound E-106, N-(1-benzyl-1,3-dimethyl-butyl)-2-chloro-8-fluoro-quinoline-3-carboxamide], the melting point was 106 to 108 °C. Further, the inhibition of growth at 200 ppm in series [1] was not below 80%. Also, the inhibition of growth at 200 ppm in the series with Fusarium culmorum [2] is not below 80%. Also, the pest or weed control at 200 ppm in the series on Fusarium culmorum [3] was not below 80%. For the same compound, the inhibition of growth at 200 ppm in series [4] is not below 80%.
Regarding `Cc1c(C(=O)NC(C)(Cc2ccccc2)CC(C)C)cnc2c(Cl)cccc12` (centres unmarked) [Compound E-107, N-(1-benzyl-1,3-dimethyl-butyl)-8-chloro-4-methyl-quinoline-3-carboxamide], the melting point fell in the range of 65 to 70 °C. Moreover, in series [1], the inhibition of growth at 200 ppm is not below 80%. The inhibition of growth at 200 ppm in the series with Fusarium culmorum [2] was not below 80%. Besides, in the series on Fusarium culmorum [3], the pest or weed control at 200 ppm was not below 80%.
In turn, `Cc1nc2c(C#N)cccc2cc1C(=O)NC(C)(Cc1ccccc1)CC(F)(F)F` (centres unmarked) [Compound E-113, N-(1-benzyl-3,3,3-trifluoro-1-methyl-propyl)-8-cyano-2-methyl-quinoline-3-carboxamide] registered a melting point of 136 to 140 °C. In addition, in series [1], the inhibition of growth at 200 ppm is not below 80%. Moreover, the inhibition of growth at 200 ppm in the series with Fusarium culmorum [2] is not below 80%. Further, in the series with Fusarium culmorum [3], the pest or weed control at 200 ppm is not below 80%. Further, the inhibition of growth at 200 ppm in series [4] is not below 80%.
